Converted amounts (≈) assume the structure as drawn.
Columns and labels:
[1] = Crystallisation inhibition: XRPD of the precipitate from a supersaturated solution in FaSSIF + 1% PVPVA64; format: physicochemical; details: Compound A monohydrate in NMP (175 mg/mL) added to FaSSIF + 1% PVPVA64, 475.5 μg/mL (DS 16), 37° C., 2 hours, 300 rpm
Procedure: (§1) A 1% solution of PVPVA64 in FaSSIF was prepared by weighing 2.5 g of PVPVA64 in a volumetric flask and dissolving it in 250 mL FaSSIF at 37° C. The complete volume of the volumetric flask was transferred to a suitable Duran bottle. Afterwards, a highly concentrated solution of Compound A monohydrate (obtained according to Example 1) in NMP was prepared (175 mg/mL). At time zero, 679 μL of the highly concentrated Compound A solution (175 mg/mL) was added to the Duran bottle containing 250 mL FaSSIF+1% PVPVA64 (w/v). The added volume Compound A solution was chosen to obtain a theoretical final concentration of 475.5 μg/mL. This concentration results in a suitable degree of supersaturation of Compound A.
A precipitate formed immediately after adding the highly concentrated solution. The mixture was equilibrated at 37° C. for 2 hours while stirring at 300 rpm. After 2 hours, the precipitate was separated from the liquid phase by vacuum filtration. The precipitate was then analyzed with Powder X-Ray Diffraction to check if the API present in the formed precipitate was present as an amorphous or a crystalline form.
X-ray powder diffraction (XRPD) analysis was carried out on a PANalytical (Philips) X'PertPRO MPD diffractometer. The instrument is equipped with a Cu LFF X-ray tube. The compound was spread on a zero-background sample holder

[2] = Solubility of Compound A in FaSSIF; format: physicochemical; details: 37 °C
Procedure: as §1

Form of the precipitate (amorphous or crystalline) by XRPD [1]: amorphous precipitate
solubility [2]: 29.7 µg/mL (≈ 63.6 µM)
Structure (SMILES): O=C(Nc1ccnc(C(F)(F)F)c1)c1cnn(-c2cccc3c(=O)[nH]ccc23)c1C(F)(F)F [Compound A, 1-(1-oxo-1,2-dihydroisoquinolin-5-yl)-5-(trifluoromethyl)-N-(2-(trifluoromethyl)pyridin-4-yl)-1H-pyrazole-4-carboxamide]

— patent publication US20220175760A1, “PHARMACEUTICAL FORMULATIONS” (Janssen Pharmaceutica NV, priority 2019, published 2022)
